Laboratory results: ChEMBL document CHEMBL1145498, “A systematic interaction map of validated kinase inhibitors with Ser/Thr kinases” (Proc Natl Acad Sci U S A, 2007)

Assays:
[1] = target: Calcium/calmodulin-dependent protein kinase type 1G (Homo sapiens) (UniProt Q96NX5)
[2] = target: Calcium/calmodulin-dependent protein kinase type II subunit beta (Homo sapiens) (UniProt Q13554)
[3] = target: Cyclin-dependent kinase-like 1 (Homo sapiens) (UniProt Q00532)
[4] = target: Casein kinase I isoform gamma-1 (Homo sapiens) (UniProt Q9HCP0)
[5] = target: Death-associated protein kinase 3 (Homo sapiens) (UniProt O43293)
[6] = target: Dual specificity mitogen-activated protein kinase kinase 2 (Homo sapiens, UniProt P36507)
[7] = target: T1, Dual specificity mitogen-activated protein kinase kinase 6 (Homo sapiens) (UniProt P52564)
T1 sequence (whole entry): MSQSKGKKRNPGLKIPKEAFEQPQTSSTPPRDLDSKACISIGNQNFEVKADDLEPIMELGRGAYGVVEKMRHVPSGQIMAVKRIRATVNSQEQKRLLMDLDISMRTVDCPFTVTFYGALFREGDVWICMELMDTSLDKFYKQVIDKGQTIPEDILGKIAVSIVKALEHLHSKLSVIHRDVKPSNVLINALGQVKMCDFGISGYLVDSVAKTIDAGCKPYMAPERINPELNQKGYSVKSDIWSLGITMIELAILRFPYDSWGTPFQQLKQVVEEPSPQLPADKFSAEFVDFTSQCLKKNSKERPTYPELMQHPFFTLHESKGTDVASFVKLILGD

[8] = target: T2, Mitogen-activated protein kinase kinase kinase 5 (Homo sapiens) (UniProt Q99683)
T2 sequence (whole entry): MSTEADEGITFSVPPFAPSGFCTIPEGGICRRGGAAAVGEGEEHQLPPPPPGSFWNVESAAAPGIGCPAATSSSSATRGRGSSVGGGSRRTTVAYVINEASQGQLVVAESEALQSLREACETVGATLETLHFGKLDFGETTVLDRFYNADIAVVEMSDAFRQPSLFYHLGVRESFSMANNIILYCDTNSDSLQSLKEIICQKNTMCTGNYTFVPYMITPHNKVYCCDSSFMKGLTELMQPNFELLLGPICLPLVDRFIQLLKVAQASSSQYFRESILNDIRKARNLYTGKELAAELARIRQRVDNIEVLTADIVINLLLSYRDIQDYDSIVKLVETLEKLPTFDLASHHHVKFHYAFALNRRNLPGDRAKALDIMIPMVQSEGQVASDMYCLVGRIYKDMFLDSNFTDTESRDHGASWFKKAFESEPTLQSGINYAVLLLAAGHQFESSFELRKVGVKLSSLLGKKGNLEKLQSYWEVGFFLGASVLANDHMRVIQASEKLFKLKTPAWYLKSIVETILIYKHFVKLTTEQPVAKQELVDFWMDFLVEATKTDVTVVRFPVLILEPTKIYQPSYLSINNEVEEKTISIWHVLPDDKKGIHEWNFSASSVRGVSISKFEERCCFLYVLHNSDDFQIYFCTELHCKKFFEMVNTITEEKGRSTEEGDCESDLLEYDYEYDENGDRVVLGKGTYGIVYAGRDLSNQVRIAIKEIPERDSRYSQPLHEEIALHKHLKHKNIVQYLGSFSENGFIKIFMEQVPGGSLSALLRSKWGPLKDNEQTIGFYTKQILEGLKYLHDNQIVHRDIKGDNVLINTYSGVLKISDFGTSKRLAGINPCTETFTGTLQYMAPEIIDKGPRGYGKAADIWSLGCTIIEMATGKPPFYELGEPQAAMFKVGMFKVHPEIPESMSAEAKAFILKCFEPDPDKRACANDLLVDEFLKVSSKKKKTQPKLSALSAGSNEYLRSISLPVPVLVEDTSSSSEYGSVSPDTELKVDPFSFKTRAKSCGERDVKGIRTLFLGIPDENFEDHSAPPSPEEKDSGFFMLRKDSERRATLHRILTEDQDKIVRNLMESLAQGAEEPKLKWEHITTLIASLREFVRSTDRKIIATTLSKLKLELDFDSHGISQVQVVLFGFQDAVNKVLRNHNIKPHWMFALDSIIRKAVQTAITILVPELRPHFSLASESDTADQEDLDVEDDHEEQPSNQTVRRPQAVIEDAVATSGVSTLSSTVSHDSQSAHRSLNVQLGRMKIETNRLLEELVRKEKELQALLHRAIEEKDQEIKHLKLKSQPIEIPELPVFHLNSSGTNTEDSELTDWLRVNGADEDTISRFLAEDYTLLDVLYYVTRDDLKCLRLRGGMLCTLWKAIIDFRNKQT

[9] = target: Mitogen-activated protein kinase 6 (Homo sapiens) (UniProt Q16659)
[10] = target: Serine/threonine-protein kinase OSR1 (Homo sapiens) (UniProt O95747)
[11] = target: Serine/threonine-protein kinase RIO2 (Homo sapiens) (UniProt Q9BVS4)
[12] = target: Ribosomal protein S6 kinase alpha-3 (Homo sapiens) (UniProt P51812)
[13] = target: T3, Serine/threonine-protein kinase 17A (Homo sapiens) (UniProt Q9UEE5)
T3 sequence (whole entry): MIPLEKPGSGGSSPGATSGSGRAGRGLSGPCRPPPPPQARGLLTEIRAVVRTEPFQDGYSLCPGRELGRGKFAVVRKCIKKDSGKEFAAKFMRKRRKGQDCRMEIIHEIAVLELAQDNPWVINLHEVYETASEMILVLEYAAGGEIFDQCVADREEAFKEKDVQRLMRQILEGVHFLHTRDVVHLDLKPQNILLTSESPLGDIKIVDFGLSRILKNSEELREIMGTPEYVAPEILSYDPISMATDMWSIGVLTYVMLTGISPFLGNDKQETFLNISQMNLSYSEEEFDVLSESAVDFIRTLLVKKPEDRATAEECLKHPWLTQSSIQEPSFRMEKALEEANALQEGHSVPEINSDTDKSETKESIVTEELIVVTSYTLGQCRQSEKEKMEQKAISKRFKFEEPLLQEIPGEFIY

[14] = target: Serine/threonine-protein kinase 26 (Homo sapiens) (UniProt Q9P289)
Sequence of Serine/threonine-protein kinase 26 (Homo sapiens) (Q9P289 2-416 limits assumed): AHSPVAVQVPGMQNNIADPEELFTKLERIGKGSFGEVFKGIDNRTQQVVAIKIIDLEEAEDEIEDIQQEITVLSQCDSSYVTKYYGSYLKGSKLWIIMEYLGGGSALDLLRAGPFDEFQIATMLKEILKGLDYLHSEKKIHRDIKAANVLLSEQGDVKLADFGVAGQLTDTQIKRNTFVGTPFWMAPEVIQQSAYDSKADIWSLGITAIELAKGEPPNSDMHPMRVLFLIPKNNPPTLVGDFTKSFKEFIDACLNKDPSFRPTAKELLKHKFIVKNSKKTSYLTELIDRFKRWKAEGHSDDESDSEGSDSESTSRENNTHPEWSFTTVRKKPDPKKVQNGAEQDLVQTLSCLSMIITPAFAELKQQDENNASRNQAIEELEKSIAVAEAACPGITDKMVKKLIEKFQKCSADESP

Sequence of Calcium/calmodulin-dependent protein kinase type II subunit beta (Homo sapiens) (Q13554 whole entry): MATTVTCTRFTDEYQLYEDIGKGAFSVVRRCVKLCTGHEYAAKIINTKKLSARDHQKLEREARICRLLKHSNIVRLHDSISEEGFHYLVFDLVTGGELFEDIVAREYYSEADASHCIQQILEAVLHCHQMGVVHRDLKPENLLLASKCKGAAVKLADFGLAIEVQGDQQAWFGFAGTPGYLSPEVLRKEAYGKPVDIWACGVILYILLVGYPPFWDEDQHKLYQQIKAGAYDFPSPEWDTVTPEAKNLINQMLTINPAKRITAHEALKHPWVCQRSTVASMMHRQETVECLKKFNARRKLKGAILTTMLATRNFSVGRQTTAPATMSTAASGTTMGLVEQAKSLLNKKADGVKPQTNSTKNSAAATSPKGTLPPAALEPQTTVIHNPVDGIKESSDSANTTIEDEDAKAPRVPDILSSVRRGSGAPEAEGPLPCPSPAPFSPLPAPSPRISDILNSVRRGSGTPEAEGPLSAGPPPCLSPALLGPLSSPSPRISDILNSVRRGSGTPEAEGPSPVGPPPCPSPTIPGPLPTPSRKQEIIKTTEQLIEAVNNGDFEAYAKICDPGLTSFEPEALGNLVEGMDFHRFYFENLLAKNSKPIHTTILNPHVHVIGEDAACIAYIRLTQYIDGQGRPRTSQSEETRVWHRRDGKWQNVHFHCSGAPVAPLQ
Sequence of Mitogen-activated protein kinase 6 (Homo sapiens) (Q16659 whole entry): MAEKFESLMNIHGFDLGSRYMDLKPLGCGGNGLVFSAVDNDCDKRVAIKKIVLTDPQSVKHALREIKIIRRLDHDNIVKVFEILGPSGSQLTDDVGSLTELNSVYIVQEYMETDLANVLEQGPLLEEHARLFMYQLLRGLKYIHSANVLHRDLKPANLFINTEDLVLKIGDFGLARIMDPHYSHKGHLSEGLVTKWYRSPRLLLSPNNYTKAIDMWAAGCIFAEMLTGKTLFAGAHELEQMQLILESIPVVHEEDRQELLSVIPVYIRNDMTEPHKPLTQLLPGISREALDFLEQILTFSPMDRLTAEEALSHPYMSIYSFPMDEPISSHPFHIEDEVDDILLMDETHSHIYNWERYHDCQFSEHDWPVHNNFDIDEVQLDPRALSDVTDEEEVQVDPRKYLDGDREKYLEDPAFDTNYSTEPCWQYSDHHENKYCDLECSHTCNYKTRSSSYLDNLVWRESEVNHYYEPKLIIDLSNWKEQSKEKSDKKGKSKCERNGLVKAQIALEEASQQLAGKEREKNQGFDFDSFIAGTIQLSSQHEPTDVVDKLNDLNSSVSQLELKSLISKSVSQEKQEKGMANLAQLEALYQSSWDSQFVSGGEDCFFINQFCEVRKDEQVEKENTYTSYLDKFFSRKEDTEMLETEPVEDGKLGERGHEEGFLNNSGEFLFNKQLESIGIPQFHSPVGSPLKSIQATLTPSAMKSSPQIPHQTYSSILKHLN
Sequence of Calcium/calmodulin-dependent protein kinase type 1G (Homo sapiens) (Q96NX5 whole entry): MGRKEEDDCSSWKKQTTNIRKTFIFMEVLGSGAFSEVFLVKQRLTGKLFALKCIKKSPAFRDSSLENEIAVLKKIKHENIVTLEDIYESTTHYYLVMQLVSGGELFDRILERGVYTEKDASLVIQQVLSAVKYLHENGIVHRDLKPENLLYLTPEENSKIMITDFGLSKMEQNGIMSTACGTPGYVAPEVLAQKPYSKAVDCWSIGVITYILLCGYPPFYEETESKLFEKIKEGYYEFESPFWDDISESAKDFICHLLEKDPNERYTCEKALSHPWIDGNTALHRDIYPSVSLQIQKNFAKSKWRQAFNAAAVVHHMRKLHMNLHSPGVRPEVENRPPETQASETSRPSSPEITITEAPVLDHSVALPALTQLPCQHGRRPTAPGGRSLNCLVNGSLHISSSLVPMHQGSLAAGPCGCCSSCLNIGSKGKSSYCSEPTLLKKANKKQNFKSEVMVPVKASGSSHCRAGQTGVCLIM
Sequence of Casein kinase I isoform gamma-1 (Homo sapiens) (Q9HCP0 whole entry, looked up, canonical isoform): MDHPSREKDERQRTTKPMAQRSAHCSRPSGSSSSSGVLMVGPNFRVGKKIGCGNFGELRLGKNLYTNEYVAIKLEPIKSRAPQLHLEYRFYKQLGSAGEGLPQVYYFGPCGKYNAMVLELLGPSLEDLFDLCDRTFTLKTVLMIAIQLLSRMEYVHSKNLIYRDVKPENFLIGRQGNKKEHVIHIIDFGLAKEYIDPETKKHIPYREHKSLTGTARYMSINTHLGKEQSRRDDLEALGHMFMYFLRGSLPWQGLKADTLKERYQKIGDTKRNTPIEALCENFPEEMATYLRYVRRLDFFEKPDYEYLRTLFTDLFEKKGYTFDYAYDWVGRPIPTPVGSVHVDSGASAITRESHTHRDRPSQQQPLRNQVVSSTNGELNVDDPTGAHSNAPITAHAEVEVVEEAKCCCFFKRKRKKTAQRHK
Sequence of Death-associated protein kinase 3 (Homo sapiens) (O43293 whole entry, looked up): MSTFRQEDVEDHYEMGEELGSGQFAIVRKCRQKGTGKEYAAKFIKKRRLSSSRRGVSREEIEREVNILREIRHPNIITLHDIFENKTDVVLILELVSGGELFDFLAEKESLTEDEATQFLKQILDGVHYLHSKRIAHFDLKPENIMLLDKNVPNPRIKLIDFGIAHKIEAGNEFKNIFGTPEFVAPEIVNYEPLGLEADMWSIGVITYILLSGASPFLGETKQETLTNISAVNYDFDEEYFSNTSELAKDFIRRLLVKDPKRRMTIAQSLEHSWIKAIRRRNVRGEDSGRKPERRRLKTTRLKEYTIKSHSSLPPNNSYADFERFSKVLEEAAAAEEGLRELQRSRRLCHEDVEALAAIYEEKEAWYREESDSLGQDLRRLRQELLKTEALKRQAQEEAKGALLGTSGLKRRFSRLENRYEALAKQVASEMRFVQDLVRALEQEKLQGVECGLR
Sequence of Serine/threonine-protein kinase OSR1 (Homo sapiens) (O95747 2-527 limits assumed): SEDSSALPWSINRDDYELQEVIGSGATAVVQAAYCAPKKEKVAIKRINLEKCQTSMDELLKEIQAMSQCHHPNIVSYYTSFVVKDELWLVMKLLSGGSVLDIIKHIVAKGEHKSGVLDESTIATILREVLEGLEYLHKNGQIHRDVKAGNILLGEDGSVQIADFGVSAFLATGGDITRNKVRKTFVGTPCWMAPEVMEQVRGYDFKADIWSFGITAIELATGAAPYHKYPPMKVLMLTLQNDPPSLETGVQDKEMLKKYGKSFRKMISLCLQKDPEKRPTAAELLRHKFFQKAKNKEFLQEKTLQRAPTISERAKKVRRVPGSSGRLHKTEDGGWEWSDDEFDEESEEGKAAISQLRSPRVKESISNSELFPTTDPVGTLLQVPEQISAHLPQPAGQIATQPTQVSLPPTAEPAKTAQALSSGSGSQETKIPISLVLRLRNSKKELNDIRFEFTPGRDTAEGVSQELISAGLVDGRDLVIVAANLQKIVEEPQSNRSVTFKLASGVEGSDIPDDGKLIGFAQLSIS
Sequence of Serine/threonine-protein kinase RIO2 (Homo sapiens) (Q9BVS4 whole entry, looked up): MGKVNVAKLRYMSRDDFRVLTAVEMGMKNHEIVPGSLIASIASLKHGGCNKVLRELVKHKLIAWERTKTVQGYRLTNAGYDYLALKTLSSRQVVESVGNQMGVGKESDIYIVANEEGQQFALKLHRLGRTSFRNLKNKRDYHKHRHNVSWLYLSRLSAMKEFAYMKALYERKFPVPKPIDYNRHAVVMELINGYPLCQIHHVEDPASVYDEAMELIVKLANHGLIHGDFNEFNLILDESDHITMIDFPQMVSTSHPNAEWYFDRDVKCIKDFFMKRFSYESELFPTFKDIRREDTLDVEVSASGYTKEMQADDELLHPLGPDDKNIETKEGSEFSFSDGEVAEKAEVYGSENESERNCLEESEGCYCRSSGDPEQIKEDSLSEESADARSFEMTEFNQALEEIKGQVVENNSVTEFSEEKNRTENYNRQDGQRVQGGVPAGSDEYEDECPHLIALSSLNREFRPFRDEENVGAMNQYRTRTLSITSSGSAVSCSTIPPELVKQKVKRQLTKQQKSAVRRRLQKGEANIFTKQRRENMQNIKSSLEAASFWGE
Sequence of Dual specificity mitogen-activated protein kinase kinase 2 (P36507 whole entry): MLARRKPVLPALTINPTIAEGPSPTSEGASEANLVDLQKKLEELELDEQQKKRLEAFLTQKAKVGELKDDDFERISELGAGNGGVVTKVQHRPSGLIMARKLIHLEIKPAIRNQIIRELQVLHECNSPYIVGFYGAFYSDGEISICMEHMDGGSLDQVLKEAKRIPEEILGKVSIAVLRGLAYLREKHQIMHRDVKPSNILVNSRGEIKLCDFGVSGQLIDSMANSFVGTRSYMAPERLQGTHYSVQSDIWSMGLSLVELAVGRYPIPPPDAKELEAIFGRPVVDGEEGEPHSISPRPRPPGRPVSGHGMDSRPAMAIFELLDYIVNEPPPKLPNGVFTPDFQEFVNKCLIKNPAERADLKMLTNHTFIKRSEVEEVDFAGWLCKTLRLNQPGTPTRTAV
Sequence of Cyclin-dependent kinase-like 1 (Homo sapiens) (Q00532 whole entry, canonical isoform): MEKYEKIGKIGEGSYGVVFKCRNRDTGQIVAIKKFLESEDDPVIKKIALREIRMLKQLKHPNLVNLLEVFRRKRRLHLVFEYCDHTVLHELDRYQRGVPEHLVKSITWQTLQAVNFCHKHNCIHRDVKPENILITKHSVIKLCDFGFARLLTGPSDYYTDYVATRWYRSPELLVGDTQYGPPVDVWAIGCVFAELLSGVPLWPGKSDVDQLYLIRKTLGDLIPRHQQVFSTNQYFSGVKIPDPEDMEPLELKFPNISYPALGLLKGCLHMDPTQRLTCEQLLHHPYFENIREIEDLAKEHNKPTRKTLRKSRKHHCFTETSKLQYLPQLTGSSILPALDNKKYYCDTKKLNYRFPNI

How did the ΔTm [1] turn out when `CSc1nc(-c2ccc(F)cc2)c(-c2ccnc(NC(C)c3ccccc3)c2)[nH]1` (racemic) was run?
Its ΔTm is 1.9 °C.

What about the ΔTm [2] of the same compound?
The ΔTm was 0 °C.

And the ΔTm [3]?
The ΔTm was 0.8 °C.

And the ΔTm [4]?
The ΔTm was 3.6 °C.

And the ΔTm [5]?
The ΔTm was 2.4 °C.

What about the ΔTm [6] of the same compound?
Its ΔTm is 0.1 °C.

What about the ΔTm [7] of the same compound?
The ΔTm was 0.5 °C.

What about the ΔTm [8] of the same compound?
Its ΔTm is 0.4 °C.

What about the ΔTm [9] of the same compound?
The ΔTm was 0.4 °C.

And the ΔTm [10]?
The ΔTm was 0.3 °C.

What about the ΔTm [11] of the same compound?
The ΔTm was 0 °C.

And the ΔTm [12]?
The ΔTm was 0.4 °C.

And the ΔTm [13]?
Its ΔTm is 0.1 °C.

And the ΔTm [14]?
The ΔTm was -0.1 °C.

What does the source list for `O=C1Nc2ccccc2/C1=C/c1cnc[nH]1`?
ΔTm [1]: 1.2 °C; ΔTm [2]: 0.8 °C; ΔTm [3]: 3.7 °C; ΔTm [4]: 1.2 °C; ΔTm [5]: 1.6 °C; ΔTm [6]: 2 °C; ΔTm [7]: 4.7 °C; ΔTm [8]: 5 °C; ΔTm [9]: 0.5 °C; ΔTm [10]: 2.4 °C; ΔTm [11]: 1.3 °C; ΔTm [12]: 5.8 °C; ΔTm [13]: 9 °C; ΔTm [14]: 4.5 °C

How did the ΔTm [1] turn out when `NCCNc1ncc(C(N)=O)c(Nc2cccc(C(F)(F)F)c2)n1` was run?
Its ΔTm is 5.7 °C.

What about the ΔTm [2] of the same compound?
The ΔTm was 0.4 °C.

What about the ΔTm [3] of the same compound?
Its ΔTm is 0.6 °C.

And the ΔTm [4]?
The ΔTm was 1 °C.

And the ΔTm [5]?
Its ΔTm is 3.2 °C.

And the ΔTm [6]?
Its ΔTm is 5.1 °C.

And the ΔTm [7]?
The ΔTm was 1.6 °C.

And the ΔTm [8]?
Its ΔTm is -0.1 °C.

And the ΔTm [9]?
The ΔTm was 3 °C.

And the ΔTm [10]?
Its ΔTm is 5.4 °C.

What about the ΔTm [11] of the same compound?
The ΔTm was 4.7 °C.

And the ΔTm [12]?
Its ΔTm is 3.3 °C.

What about the ΔTm [13] of the same compound?
Its ΔTm is 3.2 °C.

What about the ΔTm [14] of the same compound?
The ΔTm was 0.1 °C.

How did the ΔTm [1] turn out when `COc1cc2ncnc(Nc3ccc(NC(=O)c4ccccc4)cc3)c2cc1OC` [ANILINOQUINAZOLINE1] was run?
The ΔTm was 2 °C.

And the ΔTm [2]?
Its ΔTm is 0.3 °C.

What about the ΔTm [3] of the same compound?
The ΔTm was 0 °C.

And the ΔTm [4]?
Its ΔTm is 1.1 °C.

What about the ΔTm [5] of the same compound?
Its ΔTm is 0.5 °C.

And the ΔTm [6]?
Its ΔTm is 0 °C.

What about the ΔTm [7] of the same compound?
Its ΔTm is 0.2 °C.

And the ΔTm [8]?
Its ΔTm is 0.1 °C.

What about the ΔTm [9] of the same compound?
Its ΔTm is -0.1 °C.

And the ΔTm [10]?
Its ΔTm is 0.3 °C.

And the ΔTm [11]?
The ΔTm was 0.6 °C.

And the ΔTm [12]?
The ΔTm was 5.5 °C.

And the ΔTm [13]?
The ΔTm was 2.1 °C.

What about the ΔTm [14] of the same compound?
The ΔTm was 0 °C.

`O=C1Nc2ccc(S(=O)(=O)O)cc2/C1=C1/Nc2ccccc2/C1=N\O` was tested. Which ΔTm [1] did it give?
The ΔTm was 2 °C.

And the ΔTm [2]?
The ΔTm was 1.8 °C.

What about the ΔTm [3] of the same compound?
Its ΔTm is 3.1 °C.

And the ΔTm [4]?
The ΔTm was 4 °C.

What about the ΔTm [5] of the same compound?
The ΔTm was 6.4 °C.

And the ΔTm [6]?
Its ΔTm is 4.9 °C.

What about the ΔTm [7] of the same compound?
The ΔTm was 3.5 °C.

What about the ΔTm [8] of the same compound?
The ΔTm was 3.8 °C.

And the ΔTm [9]?
Its ΔTm is 1.1 °C.

What about the ΔTm [10] of the same compound?
The ΔTm was 0.1 °C.

And the ΔTm [11]?
Its ΔTm is 1.2 °C.

And the ΔTm [12]?
Its ΔTm is 5.6 °C.

And the ΔTm [13]?
The ΔTm was 9.8 °C.

And the ΔTm [14]?
The ΔTm was 0.5 °C.

`CCCNC(=O)Nc1ccc(Oc2ncnc3cc(OC)c(OC)cc23)cc1Cl` [KRN-633] was tested. Which ΔTm [1] did it give?
The ΔTm was 1 °C.

What about the ΔTm [2] of the same compound?
The ΔTm was 0.8 °C.

What about the ΔTm [3] of the same compound?
Its ΔTm is 0.8 °C.

And the ΔTm [4]?
The ΔTm was 0.8 °C.

And the ΔTm [5]?
The ΔTm was 1.3 °C.

What about the ΔTm [6] of the same compound?
The ΔTm was 0.2 °C.

And the ΔTm [7]?
Its ΔTm is 0 °C.

What about the ΔTm [8] of the same compound?
Its ΔTm is 0.3 °C.

What about the ΔTm [9] of the same compound?
Its ΔTm is 1.2 °C.

What about the ΔTm [10] of the same compound?
The ΔTm was 0.3 °C.

And the ΔTm [11]?
The ΔTm was 0.2 °C.

What about the ΔTm [12] of the same compound?
Its ΔTm is 5.8 °C.

And the ΔTm [13]?
Its ΔTm is 2.7 °C.

And the ΔTm [14]?
The ΔTm was -0.1 °C.

Which results are given for `O=C(Nc1cccc(Nc2cc(Nc3cccc(C(F)(F)F)c3)ncn2)c1)C1CC1`?
ΔTm [1]: 3.7 °C; ΔTm [2]: 2.9 °C; ΔTm [3]: 1.5 °C; ΔTm [4]: 1 °C; ΔTm [5]: 2.1 °C; ΔTm [6]: 1 °C; ΔTm [7]: 2.1 °C; ΔTm [8]: 0.9 °C; ΔTm [9]: 2.1 °C; ΔTm [10]: 0.9 °C; ΔTm [11]: 3.4 °C; ΔTm [12]: 5.6 °C; ΔTm [13]: 1.5 °C; ΔTm [14]: 0.8 °C

`Cc1cc(Nc2nc(-c3ccccc3)nc3ccccc23)n[nH]1` was tested. Which ΔTm [1] did it give?
The ΔTm was 3.7 °C.

And the ΔTm [2]?
The ΔTm was 0.6 °C.

And the ΔTm [3]?
The ΔTm was 1.5 °C.

And the ΔTm [4]?
The ΔTm was 3.3 °C.

And the ΔTm [5]?
The ΔTm was 6.5 °C.

What about the ΔTm [6] of the same compound?
Its ΔTm is 3.2 °C.

And the ΔTm [7]?
Its ΔTm is 2.3 °C.

And the ΔTm [8]?
Its ΔTm is 0.9 °C.

What about the ΔTm [9] of the same compound?
The ΔTm was 0.2 °C.

And the ΔTm [10]?
Its ΔTm is 2.9 °C.

What about the ΔTm [11] of the same compound?
Its ΔTm is 5.3 °C.

And the ΔTm [12]?
The ΔTm was 0.8 °C.

What about the ΔTm [13] of the same compound?
The ΔTm was 2.2 °C.

What about the ΔTm [14] of the same compound?
Its ΔTm is 9.5 °C.

For `O=c1c2ccccc2[nH]c(=S)n1CCN1CCC(=C(c2ccc(F)cc2)c2ccc(F)cc2)CC1` [DIACYLGLYCEROL KINASE INHIBITOR II], which ΔTm [1] is on record?
Its ΔTm is 0.1 °C.

And the ΔTm [2]?
Its ΔTm is -1 °C.

What about the ΔTm [3] of the same compound?
The ΔTm was -0.5 °C.

What about the ΔTm [4] of the same compound?
The ΔTm was -0.2 °C.

What about the ΔTm [5] of the same compound?
Its ΔTm is 1.6 °C.

And the ΔTm [6]?
The ΔTm was 0.3 °C.

What about the ΔTm [7] of the same compound?
Its ΔTm is 0.4 °C.

And the ΔTm [8]?
Its ΔTm is -0.7 °C.

What about the ΔTm [9] of the same compound?
The ΔTm was -0.1 °C.

What about the ΔTm [10] of the same compound?
The ΔTm was 2.4 °C.

And the ΔTm [11]?
Its ΔTm is 3.5 °C.

And the ΔTm [12]?
Its ΔTm is 1.2 °C.

What about the ΔTm [13] of the same compound?
Its ΔTm is 0.5 °C.

What about the ΔTm [14] of the same compound?
Its ΔTm is 2.1 °C.
